Measurements published in PMC11728001, “Design, Synthesis, and Biological Evaluation of Novel Urea-Containing Carnosic Acid Derivatives with Anticancer Activity” (International Journal of Molecular Sciences, 2024).
Read-outs that look alike come from different tables or passages of the source.

Tests used:
[1] = tested on: HCT116 colorectal cancer cell line; assay: MTT cell viability assay, HCT116; type: cell-based; conditions: Homo sapiens, HCT-116, 72 h incubation, mean ± SD
Procedure: The antiproliferative activity of CA 1 and its derivatives was evaluated against a colorectal cancer (CRC) cell line (HCT116) using the MTT assay. The anticancer drug cisplatin was used as the reference drug.
(§1) The effect of the compounds on cell viability was evaluated using the MTT assay. HCT116 (3000 cells/well), SW620 (8000 cells/well), SW480 (6000 cells/well), Caco-2 (4000 cells/well), A375 (1500 cells/well), MiaPaca-2 (2000 cells/well), and BJ (10,000 cells/well) cells were seeded in 96-well plates. After 24 h, the growth medium was replaced with a fresh medium containing the desired concentration of the compound or DMSO (control). After 72 h of incubation, the supernatant was removed and 100 µL of a mixture (1:1) of filtered MTT solution (1 mg/mL in PBS) with FBS-free medium was added to each well. After 1 h of incubation at 37 °C, the mixture was removed and 100 µL of DMSO was added to each well to dissolve the formed formazan crystals. Absorbance was immediately measured at 570 nm using a Benchmark Plus Microplate Reader (Bio-Rad Laboratories, Hercules, CA, USA). IC50 values were calculated using GraphPad Prism 9 software (GraphPad Software, San Diego, CA, USA) and expressed as the mean ± standard deviation (SD) of at least three independent experiments.

SW480 cells = assay: MTT cell viability assay, SW480; type: cell-based; conditions: Homo sapiens, 72 h incubation, mean ± SD
Procedure: as §1

SW620 cells [2] = assay: MTT cell viability assay, SW620; type: cell-based; conditions: Homo sapiens, SW-620, 72 h incubation, mean ± SD
Procedure: as §1

A375 melanoma cells [3] = assay: MTT cell viability assay, A375; type: cell-based; conditions: Homo sapiens, A-375, 72 h incubation, mean ± SD
Procedure: as §1

Caco-2 cells = assay: MTT cell viability assay, Caco-2; type: cell-based; conditions: Homo sapiens, 72 h incubation, mean ± SD
Procedure: as §1

[4] = tested on: MiaPaca-2 pancreatic cancer cells; assay: MTT cell viability assay, MiaPaca-2; type: cell-based; conditions: Homo sapiens, MIA PaCa-2, 72 h incubation, mean ± SD
Procedure: as §1

[5] = tested on: BJ non-tumoral fibroblast cell line; set-up: method as in PMID 41058673; conditions: obtained previously by the research group, same methodology; cited from earlier work
[6] = tested on: MiaPaca-2 pancreatic cancer cells; set-up: method as in PMID 18007390; conditions: from literature, same methodology; cited from earlier work
A375 melanoma cells [7] = tested on: A375 melanoma cells; set-up: method as in PMID 23229057; conditions: from literature, same methodology; cited from earlier work
SW620 cells [8] = tested on: SW620 cells; set-up: method as in PMID 31909511; conditions: obtained previously by the research group, same methodology; cited from earlier work
[9] = tested on: HCT116 colorectal cancer cell line; set-up: method as in PMID 29922789; conditions: MTT, 72 h; obtained previously by the research group, same methodology; cited from earlier work

Compound `CONC(=O)N[C@]12CCCC(C)(C)[C@@H]1CCc1cc(C(C)C)c(OC(C)=O)c(OC(C)=O)c12` [Compound 12, (4bR,8aS)-2-isopropyl-4b-(3-methoxyureido)-8,8-dimethyl-4b,5,6,7,8,8a,9,10-octahydrophenanthrene-3,4-diyl diacetate] has an IC50 [1] of 41 ± 3 µM.
In the case of `CC(=O)Oc1c(C(C)C)cc2c(c1OC(C)=O)[C@@]1(NC(=O)NCC(C)C)CCCC(C)(C)[C@@H]1CC2` [Compound 10, (4bR,8aS)-4b-(3-isobutylureido)-2-isopropyl-8,8-dimethyl-4b,5,6,7,8,8a,9,10-octahydrophenanthrene-3,4-diyl diacetate], the IC50 [1] is reported as 22 ± 2 µM.
`CNC(=O)N[C@]12CCCC(C)(C)[C@@H]1CCc1cc(C(C)C)c(OC(C)=O)c(OC(C)=O)c12` [Compound 6, (4bR,8aS)-2-isopropyl-8,8-dimethyl-4b-(3-methylureido)-4b,5,6,7,8,8a,9,10-octahydrophenanthrene-3,4-diyl diacetate] showed an IC50 [1] of 55 ± 5 µM.
`CC(C)c1cc2c(c(O)c1O)[C@@]1(C(=O)O)CCCC(C)(C)[C@@H]1CC2` [CA 1, Carnosic acid] showed an IC50 (SW480 cells) of 21.8 ± 0.7 µM, an IC50 (SW620 cells [2]) of 18 ± 2 µM and an IC50 (A375 melanoma cells [3]) of 27.6 ± 0.5 µM. It also gave an IC50 (Caco-2 cells) of 34 ± 2 µM, an IC50 [4] of 21 ± 2 µM and an IC50 [1] of 42 ± 4 µM.
`CC(=O)Oc1c(C(C)C)cc2c(c1OC(C)=O)[C@@]1(NC(=O)NCC(C)(C)CN(C)C)CCCC(C)(C)[C@@H]1CC2` [Compound 11, (4bR,8aS)-4b-(3-(3-(dimethylamino)-2,2-dimethylpropyl)ureido)-2-isopropyl-8,8-dimethyl-4b,5,6,7,8,8a,9,10-octahydrophenanthrene-3,4-diyl diacetate] gave an IC50 [1] of 30 ± 1 µM.
For `CC(=O)Oc1c(C(C)C)cc2c(c1OC(C)=O)[C@@]1(NC(=O)NC3COC3)CCCC(C)(C)[C@@H]1CC2` [Compound 19, (4bR,8aS)-2-isopropyl-8,8-dimethyl-4b-(3-(oxetan-3-yl)ureido)-4b,5,6,7,8,8a,9,10-octahydrophenanthrene-3,4-diyl diacetate], the IC50 [1] was > 60 µM.
With `CC(=O)Oc1c(C(C)C)cc2c(c1OC(C)=O)[C@@]1(NC(=O)NCCc3ccccc3)CCCC(C)(C)[C@@H]1CC2` [Compound 13, (4bR,8aS)-2-isopropyl-8,8-dimethyl-4b-(3-phenethylureido)-4b,5,6,7,8,8a,9,10-octahydrophenanthrene-3,4-diyl diacetate] the IC50 (SW480 cells) was 8.6 ± 0.3 µM, the IC50 (SW620 cells [2]) was 9 ± 1 µM and the IC50 (Caco-2 cells) was 10.9 ± 0.6 µM. The IC50 [1] was 14 ± 2 µM.
In the case of `CC(=O)Oc1c(C(C)C)cc2c(c1OC(C)=O)[C@@]1(NC(=O)NCc3ccncc3)CCCC(C)(C)[C@@H]1CC2` [Compound 15, (4bR,8aS)-2-isopropyl-8,8-dimethyl-4b-(3-(pyridin-4-ylmethyl)ureido)-4b,5,6,7,8,8a,9,10-octahydrophenanthrene-3,4-diyl diacetate], the IC50 [1] is reported as 33 ± 2 µM.
In the case of `CC(=O)Oc1c(C(C)C)cc2c(c1OC(C)=O)[C@@]1(NC(=O)NCC3(C)COC3)CCCC(C)(C)[C@@H]1CC2` [Compound 20, (4bR,8aS)-2-isopropyl-8,8-dimethyl-4b-(3-((3-methyloxetan-3-yl)methyl)ureido)-4b,5,6,7,8,8a,9,10-octahydrophenanthrene-3,4-diyl diacetate], the IC50 [1] is reported as 46 ± 2 µM.
With `CC(=O)Oc1c(C(C)C)cc2c(c1OC(C)=O)[C@@]1(NC(=O)NCC3CCOCC3)CCCC(C)(C)[C@@H]1CC2` [Compound 18, (4bR,8aS)-2-isopropyl-8,8-dimethyl-4b-(3-((tetrahydro-2H-pyran-4-yl)methyl)ureido)-4b,5,6,7,8,8a,9,10-octahydrophenanthrene-3,4-diyl diacetate] the IC50 [1] was 51 ± 5 µM.
In the case of `N.N.[Cl][Pt][Cl]` [Cisplatin, cisplatin], the IC50 [5] is listed as 10 ± 2 µM, the IC50 [6] is listed as 5 ± 1 µM and the IC50 (A375 melanoma cells [7]) is listed as 3 ± 1 µM. For the same compound, the IC50 (SW620 cells [8]) was 1.4 ± 0.5 µM and the IC50 [9] was 21 ± 1 µM.
Compound `CC(=O)Oc1c(C(C)C)cc2c(c1OC(C)=O)[C@@]1(C(=O)O)CCCC(C)(C)[C@@H]1CC2` [Compound 2, (4aR,10aS)-5,6-Diacetoxy-7-isopropyl-1,1-dimethyl-1,3,4,9,10,10a-hexahydrophenanthrene-4a(2H)-carboxylic acid] has an IC50 [1] of 44 ± 4 µM.
`CCNC(=O)N[C@]12CCCC(C)(C)[C@@H]1CCc1cc(C(C)C)c(OC(C)=O)c(OC(C)=O)c12` [Compound 7, (4bR,8aS)-4b-(3-Ethylureido)-2-isopropyl-8,8-dimethyl-4b,5,6,7,8,8a,9,10-octahydrophenanthrene-3,4-diyl diacetate] gave an IC50 [1] of 44 ± 4 µM.
For `CCCNC(=O)N[C@]12CCCC(C)(C)[C@@H]1CCc1cc(C(C)C)c(OC(C)=O)c(OC(C)=O)c12` [Compound 8, (4bR,8aS)-2-isopropyl-8,8-dimethyl-4b-(3-propylureido)-4b,5,6,7,8,8a,9,10-octahydrophenanthrene-3,4-diyl diacetate], the IC50 [1] was 31 ± 1 µM.
With `CCCCN(C)C(=O)N[C@]12CCCC(C)(C)[C@@H]1CCc1cc(C(C)C)c(OC(C)=O)c(OC(C)=O)c12` [Compound 9, (4bR,8aS)-4b-(3-butyl-3-methylureido)-2-isopropyl-8,8-dimethyl-4b,5,6,7,8,8a,9,10-octahydrophenanthrene-3,4-diyl diacetate] the IC50 [1] was 22 ± 1 µM.
Work on `CC(=O)Oc1c(C(C)C)cc2c(c1OC(C)=O)[C@@]1(N=C=O)CCCC(C)(C)[C@@H]1CC2` [Compound 5, (4bR, 8aS)-4b-Isocyanato-2-isopropyl-8,8-dimethyl-4b,5,6,7,8,8a,9,10-octahydrophenanthrene-3,4-diyl diacetate] yielded an IC50 [1] of 28 ± 3 µM.
`CC(=O)Oc1c(C(C)C)cc2c(c1OC(C)=O)[C@@]1(NC(=O)NCCCN(C)c3ccccc3)CCCC(C)(C)[C@@H]1CC2` [Compound 16, (4bR,8aS)-2-isopropyl-8,8-dimethyl-4b-(3-(3-(methyl(phenyl)amino)propyl)ureido)-4b,5,6,7,8,8a,9,10-octahydrophenanthrene-3,4-diyl diacetate] showed an IC50 (SW480 cells) of 7.6 ± 0.6 µM, an IC50 (SW620 cells [2]) of 6.4 ± 0.4 µM and an IC50 (A375 melanoma cells [3]) of 7.6 ± 0.6 µM. It also gave an IC50 (Caco-2 cells) of 9.6 ± 0.6 µM, an IC50 [4] of 9.3 ± 0.4 µM and an IC50 [1] of 12 ± 0.5 µM.
Work on `CC(=O)Oc1c(C(C)C)cc2c(c1OC(C)=O)[C@@]1(NC(=O)NCc3ccoc3)CCCC(C)(C)[C@@H]1CC2` [Compound 17, (4bR,8aS)-4b-(3-(furan-3-ylmethyl)ureido)-2-isopropyl-8,8-dimethyl-4b,5,6,7,8,8a,9,10-octahydrophenanthrene-3,4-diyl diacetate] yielded an IC50 [1] of 21 ± 2 µM.
